US8242159B2, “1,3-dihydro-5-isobenzofurancarbonitrile derivatives and pharmaceutical composition thereof for the treatment of premature ejaculation” (Dong-A Pharmaceutical. Co., Ltd, priority 2007, dated 2012)

Test system: Male Wistar rats
Experiment: p-PCA-induced ejaculation in anesthetized rats (ejaculation-delaying effect)
Assay type: in vivo, rat
Conditions: for Ratio: Number of responding animals/total animal number: 50 mg/kg oral in 1% HPMC, p-PCA 5 mg/kg i.p. 80 min later, observed 30 min; for Latency: Time to display the ejaculatory response: 50 mg/kg oral, p-PCA 5 mg/kg i.p., mean ± standard deviation of responding rats
Description: The compounds prepared in the above examples were evaluated to determine whether they have an effect of delaying ejaculation. The evaluation was carried out using an animal model according to a method described in Yonezawa et al., Life Sci. 2000, 67(25) p 3031-9. Male Wistar rats weighing 240-260 g were used. Each compound was suspended in 1% HPMC, and then administered orally to each animal. After 60 min, the animals were anesthetized and fixed. 20 min later, para-chloroamphetamine (p-PCA) was intraperitoneally administered in a dose of 5 mg/kg in order to induce ejaculation. […] An ejaculatory response was considered to be elicited when rhythmic contraction of bulbocavernosus muscles and semen discharge occurs. Six or more animals were used for each compound. A Fisher's […] test was performed for the comparison of the proportion of responding rats (ejaculated rats) to determine significance of difference between a treatment group and a vehicle control. The time to reach ejaculation was expressed as mean±standard deviation.
Each test compound was administered at a dose of 50 mg/kg. Ejaculation was elicited in all seven animals of a control group.

Cc1ccc(C2(CCn3cccn3)OCc3cc(C#N)ccc32)cc1 (centres unmarked) [Ex. 32, 1-{2-(pyrazole-1-yl)ethyl}-1-(4-tolyl)-1,3-dihydro-5-isobenzofurancarbonitrile]
Ratio: Number of responding animals/total animal number: 4/9
Latency: Time to display the ejaculatory response: 1000 ± 401 s

Cc1ccc(C2(CCn3cccn3)OCc3cc(C#N)ccc32)cc1.Cl (centres unmarked) [Ex. 33, 1-{2-(pyrazole-1-yl)ethyl}-1-(4-tolyl)-1,3-dihydro-5-isobenzofurancarbonitrile hydrochloride]
Ratio: Number of responding animals/total animal number: 3/7
Latency: Time to display the ejaculatory response: 698 ± 374 s

CN(C)CCCC1(c2ccc(N(C)C)cc2)OCc2cc(C#N)ccc21 (centres unmarked) [Ex. 34, 1-(4-dimethylaminophenyl)-1-{3-(dimethylamino)propyl}-1,3-dihydro-5-isobenzofurancarbonitrile]
Ratio: Number of responding animals/total animal number: 4/9
Latency: Time to display the ejaculatory response: 807 ± 304 s

CN(C)CCCC1(c2ccc(N(C)C)cc2)OCc2cc(C#N)ccc21.Cl (centres unmarked) [Ex. 36, 1-(4-dimethylaminophenyl)-1-{3-(dimethylamino)propyl}-1,3-dihydro-5-isobenzofurancarbonitrile hydrochloride]
Ratio: Number of responding animals/total animal number: 2/6
Latency: Time to display the ejaculatory response: 554 ± 77 s

CN(C)c1ccc(C2(CCCn3ccnc3)OCc3cc(C#N)ccc32)cc1 (centres unmarked) [Ex. 37, 1-(4-dimethylaminophenyl)-1-{3-(imidazole-1-yl)propyl}-1,3-dihydro-5-isobenzofurancarbonitrile]
Ratio: Number of responding animals/total animal number: 4/7
Latency: Time to display the ejaculatory response: 950 ± 241 s

CN(C)c1ccc(C2(CCCn3ccnc3)OCc3cc(C#N)ccc32)cc1.Cl (centres unmarked) [Ex. 38, 1-(4-dimethylaminophenyl)-1-{3-(imidazole-1-yl)propyl}-1,3-dihydro-5-isobenzofurancarbonitrile hydrochloride]
Ratio: Number of responding animals/total animal number: 4/7
Latency: Time to display the ejaculatory response: 764 ± 304 s

CN(C)CCCC1(c2cccs2)OCc2cc(C#N)ccc21 (centres unmarked) [Ex. 39, 1-{3-(dimethylamino)propyl}-1-(2-thienyl)-1,3-dihydro-5-isobenzofurancarbonitrile]
Ratio: Number of responding animals/total animal number: 5/9
Latency: Time to display the ejaculatory response: 854 ± 287 s

CN(C)CCCC1(c2cccs2)OCc2cc(C#N)ccc21.Cl (centres unmarked) [Ex. 41, 1-{3-(dimethylamino)propyl}-1-(2-thienyl)-1,3-dihydro-5-isobenzofurancarbonitrile hydrochloride]
Ratio: Number of responding animals/total animal number: 1/7
Latency: Time to display the ejaculatory response: 702 s

CN(C)CCC1(c2cccs2)OCc2cc(C#N)ccc21 (centres unmarked) [Ex. 42, 1-{2-(dimethylamino)ethyl}-1-(2-thienyl)-1,3-dihydro-5-isobenzofurancarbonitrile]
Ratio: Number of responding animals/total animal number: 4/9
Latency: Time to display the ejaculatory response: 906 ± 275 s

CN(C)CCC1(c2cccs2)OCc2cc(C#N)ccc21.Cl (centres unmarked) [Ex. 43, 1-{2-(dimethylamino)ethyl}-1-(2-thienyl)-1,3-dihydro-5-isobenzofurancarbonitrile hydrochloride]
Ratio: Number of responding animals/total animal number: 3/7
Latency: Time to display the ejaculatory response: 888 ± 275 s

N#Cc1ccc2c(c1)COC2(CCCn1ccnc1)c1cccs1 (centres unmarked) [Ex. 44, 1-{3-(imidazole-1-yl)propyl}-1-(2-thienyl)-1,3-dihydro-5-isobenzofurancarbonitrile]
Ratio: Number of responding animals/total animal number: 4/7
Latency: Time to display the ejaculatory response: 904 ± 350 s

Cl.N#Cc1ccc2c(c1)COC2(CCCn1ccnc1)c1cccs1 (centres unmarked) [Ex. 46, 1-{3-(imidazole-1-yl)propyl}-1-(2-thienyl)-1,3-dihydro-5-isobenzofurancarbonitrile hydrochloride]
Ratio: Number of responding animals/total animal number: 0/7

N#Cc1ccc2c(c1)COC2(CCn1ccnc1)c1cccs1 (centres unmarked) [Ex. 47, 1-{2-(imidazole-1-yl)ethyl}-1-(2-thienyl)-1,3-dihydro-5-isobenzofurancarbonitrile]
Ratio: Number of responding animals/total animal number: 4/7
Latency: Time to display the ejaculatory response: 814 ± 278 s

Cl.N#Cc1ccc2c(c1)COC2(CCn1ccnc1)c1cccs1 (centres unmarked) [Ex. 48, 1-{2-(imidazole-1-yl)ethyl}-1-(2-thienyl)-1,3-dihydro-5-isobenzofurancarbonitrile hydrochloride]
Ratio: Number of responding animals/total animal number: 3/7
Latency: Time to display the ejaculatory response: 904 ± 321 s

N#Cc1ccc2c(c1)COC2(CCCn1cccn1)c1cccs1 (centres unmarked) [Ex. 49, 1-{3-(pyrazole-1-yl)propyl}-1-(2-thienyl)-1,3-dihydro-5-isobenzofurancarbonitrile]
Ratio: Number of responding animals/total animal number: 5/9
Latency: Time to display the ejaculatory response: 807 ± 301 s

Cl.N#Cc1ccc2c(c1)COC2(CCCn1cccn1)c1cccs1 (centres unmarked) [Ex. 50, 1-{3-(pyrazole-1-yl)propyl}-1-(2-thienyl)-1,3-dihydro-5-isobenzofurancarbonitrile hydrochloride]
Ratio: Number of responding animals/total animal number: 3/7
Latency: Time to display the ejaculatory response: 979 ± 347 s

N#Cc1ccc2c(c1)COC2(CCn1cccn1)c1cccs1 (centres unmarked) [Ex. 51, 1-{2-(pyrazole-1-yl)ethyl}-1-(2-thienyl)-1,3-dihydro-5-isobenzofurancarbonitrile]
Ratio: Number of responding animals/total animal number: 4/7
Latency: Time to display the ejaculatory response: 1042 ± 451 s

Cl.N#Cc1ccc2c(c1)COC2(CCn1cccn1)c1cccs1 (centres unmarked) [Ex. 52, 1-{2-(pyrazole-1-yl)ethyl}-1-(2-thienyl)-1,3-dihydro-5-isobenzofurancarbonitrile hydrochloride]
Ratio: Number of responding animals/total animal number: 3/7
Latency: Time to display the ejaculatory response: 869 ± 274 s

N#Cc1ccc2c(c1)COC2(CCCn1ccnc1)c1ccc(F)cc1 (centres unmarked) [Ex. 53, 1-(4-fluorophenyl)-1-{3-(imidazole-1-yl)propyl}-1,3-dihydro-5-isobenzofurancarbonitrile]
Ratio: Number of responding animals/total animal number: 4/9
Latency: Time to display the ejaculatory response: 1054 ± 320 s

Cl.N#Cc1ccc2c(c1)COC2(CCCn1ccnc1)c1ccc(F)cc1 (centres unmarked) [Ex. 54, 1-(4-fluorophenyl)-1-{3-(imidazole-1-yl)propyl}-1,3-dihydro-5-isobenzofurancarbonitrile hydrochloride]
Ratio: Number of responding animals/total animal number: 5/9
Latency: Time to display the ejaculatory response: 1247 ± 352 s

N#Cc1ccc2c(c1)COC2(CCn1ccnc1)c1ccc(F)cc1 (centres unmarked) [Ex. 55, 1-(4-fluorophenyl)-1-{2-(imidazole-1-yl)ethyl}-1,3-dihydro-5-isobenzofurancarbonitrile]
Ratio: Number of responding animals/total animal number: 4/7
Latency: Time to display the ejaculatory response: 1450 ± 671 s

Cl.N#Cc1ccc2c(c1)COC2(CCn1ccnc1)c1ccc(F)cc1 (centres unmarked) [Ex. 56, 1-(4-fluorophenyl)-1-{2-(imidazole-1-yl)ethyl}-1,3-dihydro-5-isobenzofurancarbonitrile hydrochloride]
Ratio: Number of responding animals/total animal number: 2/6
Latency: Time to display the ejaculatory response: 606 ± 130 s

N#Cc1ccc2c(c1)COC2(CCCn1cccn1)c1ccc(F)cc1 (centres unmarked) [Ex. 57, 1-(4-fluorophenyl)-1-{3-(pyrazole-1-yl)propyl}-1,3-dihydro-5-isobenzofurancarbonitrile]
Ratio: Number of responding animals/total animal number: 4/9
Latency: Time to display the ejaculatory response: 951 ± 342 s

Cl.N#Cc1ccc2c(c1)COC2(CCCn1cccn1)c1ccc(F)cc1 (centres unmarked) [Ex. 58, 1-(4-fluorophenyl)-1-{3-(pyrazole-1-yl)propyl}-1,3-dihydro-5-isobenzofurancarbonitrile hydrochloride]
Ratio: Number of responding animals/total animal number: 4/9
Latency: Time to display the ejaculatory response: 850 ± 362 s

N#Cc1ccc2c(c1)COC2(CCn1cccn1)c1ccc(F)cc1 (centres unmarked) [Ex. 59, 1-(4-fluorophenyl)-1-{2-(pyrazole-1-yl)ethyl}-1,3-dihydro-5-isobenzofurancarbonitrile]
Ratio: Number of responding animals/total animal number: 3/7
Latency: Time to display the ejaculatory response: 954 ± 287 s

Cl.N#Cc1ccc2c(c1)COC2(CCn1cccn1)c1ccc(F)cc1 (centres unmarked) [Ex. 60, 1-(4-fluorophenyl)-1-{2-(pyrazole-1-yl)ethyl}-1,3-dihydro-5-isobenzofurancarbonitrile hydrochloride]
Ratio: Number of responding animals/total animal number: 4/9
Latency: Time to display the ejaculatory response: 1010 ± 400 s

N#Cc1ccc2c(c1)COC2(CCCn1ccnc1)c1ccc(Cl)cc1 (centres unmarked) [Ex. 61, 1-(4-chlorophenyl)-1-{3-(imidazole-1-yl)propyl}-1,3-dihydro-5-isobenzofurancarbonitrile]
Ratio: Number of responding animals/total animal number: 3/7
Latency: Time to display the ejaculatory response: 930 ± 247 s

Cl.N#Cc1ccc2c(c1)COC2(CCCn1ccnc1)c1ccc(Cl)cc1 (centres unmarked) [Ex. 62, 1-(4-chlorophenyl)-1-{3-(imidazole-1-yl)propyl}-1,3-dihydro-5-isobenzofurancarbonitrile hydrochloride]
Ratio: Number of responding animals/total animal number: 4/7
Latency: Time to display the ejaculatory response: 888 ± 284 s

N#Cc1ccc2c(c1)COC2(CCn1ccnc1)c1ccc(Cl)cc1 (centres unmarked) [Ex. 63, 1-(4-chlorophenyl)-1-{2-(imidazole-1-yl)ethyl}-1,3-dihydro-5-isobenzofurancarbonitrile]
Ratio: Number of responding animals/total animal number: 3/7
Latency: Time to display the ejaculatory response: 904 ± 307 s

Cl.N#Cc1ccc2c(c1)COC2(CCn1ccnc1)c1ccc(Cl)cc1 (centres unmarked) [Ex. 64, 1-(4-chlorophenyl)-1-{2-(imidazole-1-yl)ethyl}-1,3-dihydro-5-isobenzofurancarbonitrile hydrochloride]
Ratio: Number of responding animals/total animal number: 4/7
Latency: Time to display the ejaculatory response: 1032 ± 299 s
